We go through one compound from patent US10442791B2, “DNA-PK inhibitors” (Vertex Pharmaceuticals Incorporated, priority 2012, dated 2019).

Assay type in all cases: cell-based
In one experiment the test system is FaDu. Nature of the experiment: Cell viability following irradiation (CellTiter-Glo), FaDu. The conditions noted are these: FaDu (Head and Neck Squamous Cell Carcinoma), viability at 6 days. The method, then:
(§1) To evaluate the radiosensitizing effects of compounds of the invention in combination with ionizing radiation (IR), a broad panel of cell lines across multiple tumor types and genetic backgrounds were tested. Cells were incubated with DMSO or compound 578 for 30 minutes and then exposed to various doses of radiation (0, 0.5, 1, 2, 4, 6, 8, and 16 Gy). Cell viability was assessed at 6 days using CellTiter-Glo® (Promega, Inc).
A general note: In ATP-based viability assays light output follows the ATP content of the culture.

The next experiment relates to H838. Put plainly: Cell viability following irradiation (CellTiter-Glo), H838. The conditions noted are these: H838 (Lung Cancer), viability at 6 days. The method, then: as §1
The subject of another experiment is LS411N. Nature of the experiment: Cell viability following irradiation (CellTiter-Glo), LS411N. The conditions noted are these: LS411N (Colorectal Cancer), viability at 6 days. The method, then:
as §1

In the next experiment the test system is HT1080. Nature of the experiment: Cell viability following irradiation (CellTiter-Glo), HT1080. Conditions: HT1080 (Fibrosarcoma), viability at 6 days. How it is done:
as §1

Experiment [1] has as its system DNA-PK null SCID mouse cell line. Put plainly: Cell viability following irradiation (CellTiter-Glo), SCID. The conditions noted are these: for EC50 IR: SCID (SCID Tumor, DNA-PK null), viability at 6 days. How it is done:
as §1

The test system of the next experiment is PATU8889T. Put plainly: Cell viability following irradiation (CellTiter-Glo), PATU8889T. Conditions: PATU8889T (Pancreatic cancer), viability at 6 days. The method, then:
as §1

In experiment [2] the test system is human fibroblast cell lines (HFL1, IMR90 and MRC5), ARPE19, NHBE, SAEC. Nature of the experiment: Cell viability following irradiation, normal cell lines. The conditions noted are these: exception: HS68. How it is done:
as §1

With `CNC(=O)c1ccnc2c([C@H](C)CNc3cc(-c4cnc(C)nc4)ncn3)cccc12` [Compound 578, (S)—N-methyl-8-(1-((2′-methyl-[4,5′-bipyrimidin]-6-yl)amino)propan-2-yl)quinoline-4-carboxamide], the “EC50 IR” value in the experiment with FaDu (compound 578 0.7 μM + IR) is 2 Gy; in the experiment with FaDu (compound 578 2.1 μM + IR) it was 1.9 Gy; in the experiment with H838 (compound 578 0.7 μM + IR), 0.6 Gy; in the experiment on H838 (compound 578 2.1 μM + IR), less than 0.5 Gy; with LS411N (compound 578 0.7 μM + IR), 2.3 Gy; in the experiment with LS411N (compound 578 2.1 μM + IR), 1.9 Gy. For the same compound, the “EC50 IR” value in the experiment with HT1080 (compound 578 0.7 μM + IR) came to 1.9 Gy; in the experiment with HT1080 (compound 578 2.1 μM + IR), 0.9 Gy; in experiment [1] (compound 578 0.7 μM + IR), 2.8 Gy; in experiment [1] (compound 578 2.1 μM + IR) it was 3.1 Gy; in the experiment on PATU8889T (compound 578 0.7 μM + IR), 1.1 Gy; in the experiment on PATU8889T (compound 578 2.1 μM + IR), 0.9 Gy. Further, the “effect on cell viability” value in experiment [1] (as a single agent or in combination with radiation, DNA-PK null SCID mouse cell line) is reported as “minimal effect on cell viability”. Besides, in experiment [2], the radiosensitization result was “only marginal radiosensitization”.
